Experiments:
[1] = 7-day oral weight loss study in diet-induced obese mice; assay type: in vivo, C57BL/6NTac mice; conditions: DIO mice; for weight change over the course of the study: 1.0 mg/kg oral once a day for 7 days
Description: A weight loss study was conducted in obese mice. The mice in this study were not genetically obese, but prior to and during the study, obesity was induced by a high-fat diet. Twelve week-old C57BL/6NTac mice, maintained on a 60% fat diet prior to and during the study, were separated into seven groups, eight animals per group. Average body weight of the mice was approximately 47 g at the start of the study.
Each of six groups was orally administered 1.0 mg/kg of a compound ([…] compounds B. C, D, E, F and G as disclosed herein), in 10% gelucire in deoinised water. Each of these six groups was administered a different compound. One group was orally administered fumagillin at 1.0 mg/kg (group 201) in 10% gelucire in deoinised water, and one group was administered 10% gelucire in deoinised water (vehicle). Mice received administrations once a day for 7 days.
(Data analyzed by ANCOVA with body weight on Day 1 as covariate followed by multiple tests against vehicle group: *p<0.05; **p<0.01, ***p<0.001.)
A weight loss study was conducted in obese mice, similar to Example 5. Twelve week-old C57BL/6NTac mice, maintained on a 60% fat diet prior to and during the study, were separated into seven groups, eight animals per group. Average body weight of the mice was approximately 47 g at the start of the study.
The group was orally administered […] of a compound H, in 10% gelucire in deoinised water. Mice received administrations once a day for 7 days. After 7 days, the average weight loss of the mice was 13.2%.

[2] = 28-day oral gavage in high fat diet C57BL/6 mice, fat and lean tissue change; assay type: in vivo; conditions: 0.1 or 0.3 mg/kg oral gavage, 28 days
Description: C57BL/6 mice were conditioned on a low-fat diet (LF), a high fat diet (HF), or a high-fat diet and treated with fumagillin (ZGN-201) administered by oral gavage at doses of 0.1 or 0.3 mg/kg for 28 days. […] To determine whether the weight loss resulted from loss of fat or loss of lean tissue, the percentage change in fat tissue and lean tissue was determined for LF mice, HF mice, HF mice treated with 0.1 mg/kg fumagillin, and HF mice treated with 0.3 mg/kg fumagillin.
Upon histological examination, the studies of treated obese mice show no effect on growth of new blood vessels in growing fat depots and no effect on blood vessel size or density when compared to animals in which weight loss has been induced by simple energy (food) restriction.

TXN in Cos-1 cells = experiment: FLAG-tagged TXN expression in transfected Cos-1 cells (gel); assay type: cell-based
Description: (§1) EC50 of fumagillin to increase TXN levels is <10 nM.

[3] = 14-day treatment of high fat diet-fed C57BL/6 mice, body weight and food intake; assay type: in vivo; conditions: 1 mg/kg
Description: High fat diet-fed C57BL/6 mice were treated with 1 mg/kg of the MetAP2 inhibitor fumagillin (ZGN-201, squares) or vehicle (diamonds) for 14 days (FIG. 10). Body weights (left panel) were determined daily, while food intake (right panel) was assessed every other day by measuring the food consumed by each cage of three mice over the two day period. Data shown in FIG. 10 are means±SEM, n=9 animals. […] First, during the initial two to three days of treatment, no overt changes in food intake or body weight are observed. During this time period key changes in MetAP2 substrates occur, including glyceraldehyde-3-phosphate dehydrogenase and thioredoxin (data not shown). Second, the animals enter a period of rapid weight loss that proceeds until essentially all excess fat deposits are consumed. During this second period, fat oxidation is enhanced and food intake is inhibited.
Weight loss following treatment with therapeutically relevant doses of MetAP2 inhibitors stops once animals attain a normal body composition. […] This third phase can be maintained indefinitely provided the drug is continued (see FIG. 10), or presumably can be maintained in practice through other complementary pharmacologic, dietary, or lifestyle interventions.

[4] = Oral glucose tolerance test (OGTT) in overweight dogs; assay type: in vivo
Description: (§2) The effects of an 8 week treatment with ZGN-201 (ZGN) on body weight and metabolic parameters in 6 overweight dogs (3 HFF and 3 chow-fed (OWC)) were evaluated. The study was comprised of three phases—pretreatment (PT: 4 weeks), treatment (ZGNTx: 8 weeks), and washout (WO: 4 weeks). FI, BW, blood chemistry and hematology, beta-hydroxybutyrate (BHB), and glycerol were assessed weekly. Oral glucose tolerance tests (OGTT, 0.9 g/kg initial BW) were performed at the end of PT, ZGNTx, and WO.

TXN in 293T cells = experiment: FLAG-tagged TXN expression in transfected 293T cells (gel); assay type: cell-based; conditions: 293T cells transfected with FLAG-tagged TXN
Description: as §1

[5] = 10-day oral gavage in C57BL/6 mice conditioned on a high fat diet; assay type: in vivo; conditions: 0.3 or 3 mg/kg daily oral gavage, 10 days
Source text: (§3) Oral administration of the MetAP2 inhibitor fumagillin causes an increase in circulating ketone bodies, as measured by concentration of beta hydroxybutyrate, which indicates an increase in the breakdown of stored fat.

[6] = system: Thioredoxin-1 (TXN) in B16F10 cells; experiment: N-terminal chymotryptic fragments of TXN measured by LC/MS in B16F10 cells treated with fumagillin; assay type: cell-based
Description: B16F10 cells were treated with increasing concentrations of fumagillin. N-terminal chymotryptic fragments of TXN were measured by liquid chromatography/mass spectrometry (LC/MS). […] The EC50 of fumagillin to increase Met-TXN acetylated Met-TXN levels is <10 nM.

[7] = 8 week oral treatment in overweight dogs, body weight and metabolic parameters; assay type: in vivo
Description: as §2, with “The study was comprised of three phases—pretreatment (PT: 4 weeks), treatment (ZGNTx: 8 weeks), and washout (WO: 4 weeks).” left out

[8] = 250-day diet admixture in C57BL/6 mice conditioned on a high fat diet; assay type: in vivo
Description: as §3
In addition to showing an increase in beta hydroxybutyrate concentration, C57BL/6 mice conditioned on a high fat diet and treated with fumagillin (ZGN-201) as a diet admixture (1 mg/kg daily for 250 days) also experienced a reduction in body fat by approximately 40 percent (FIG. 6). Once attaining the maximum weight reduction, mice treated daily with 1 mg/kg fumagillin maintained a weight that was 25% less than that of age-matched mice maintained on normal mouse chow diet (lean mice, FIG. 6) for the duration of the experiment.
Adipose tissue in mice fed a high-fat diet show distinctive crown-like structures not seen in lean mice. These crown-like structures were also absent from the adipose tissue of fumagillin-treated mice.

[9] = High-fat high fructose dogs, WO
[10] = High-fat high fructose dogs, ZGNTx
[11] = diet admixture 1 mg/kg daily, 250 days

CO[C@@H]1[C@H](OC(=O)N[C@@H](C(N)=O)C(C)C)CC[C@]2(CO2)[C@H]1[C@@]1(C)O[C@@H]1CC=C(C)C [B]
weight change over the course of the study [1]: lost weight

CCN(CC)C/C=C\c1ccccc1S(=O)(=O)Nc1ccc2c(c1C(=O)O)CCCC2 [H]
average weight loss ([1]; 100.0 mg/kg oral once a day, after 7 days): 13.2%

CO[C@@H]1[C@H](OC(=O)NCCC2CCCN2C)CC[C@]2(CO2)[C@H]1[C@@]1(C)O[C@@H]1CC=C(C)C (some centres unmarked) [C]
weight change over the course of the study [1]: lost weight

CO[C@@H]1[C@H](OC(=O)/C=C/C=C/C=C/C=C/C(=O)O)CC[C@]2(CO2)[C@H]1[C@@]1(C)O[C@@H]1CC=C(C)C [fumagillin]
weight change over the course of the study [1]: lost the most weight
body weight [2]: reduction in body weight down to the level of low fat fed mice
reduction in fat ([2]; HF mice): 40-50%
reduction in lean tissue ([2]; HF mice): 5-10%
EC50 (TXN in Cos-1 cells; Chlorocebus aethiops, FIG. 4 gel, cell line (Cos-1 or 293T) not specified, read-out: EC50 to increase TXN levels): < 10 nM
expression of TXN (TXN in Cos-1 cells; Cos-1 cells transfected with FLAG-tagged TXN): significantly increased
food intake during period of rapid weight loss ([3]; 14 days, second phase): inhibited
food intake after weight loss reaches a nadir ([3]; third phase): returns to normal levels
reduction in insulin secretion (C-peptide AUC) ([4]; end of 8 week treatment, OGTT): 32%
reversal of the abnormality in the plasma glucose excursion during the OGTT ([4]; end of 8 week treatment, OGTT 0.9 g/kg): 75%
improvement in plasma glucose after the drug was washed out ([4]; end of washout, OGTT): completely reversed
expression of TXN (TXN in 293T cells): significantly increased
beta hydroxybutyrate concentrations [5]: increase
free fatty acid concentration [5]: without an increase
EC50 ([6]; Mus musculus, B16-F10, read-out: EC50 to increase Met-TXN acetylated Met-TXN levels): < 10 nM
accumulation of N-acetyl TXN(1-4) ([6]; increasing concentrations): significant accumulation
cellular level of TXN containing an intact N-terminal methionine [TXN(1-4)] ([6]; increasing concentrations): significantly increased
reduction of FI ([7]; HFF dogs): 29%
loss of body weight ([7]; HFF dogs, daily oral, 8 weeks): approximately 8%
loss of excess BW ([7]; HFF dogs, daily oral, 8 weeks): 81%
weight loss sustained after discontinuation of treatment ([7]; HFF dogs, eight to ten weeks following discontinuation): approximately one half of the initial weight loss was sustained
BHB [7, 9]: 39 ± 7 µM
FI [7, 9]: 1657 ± 147 kcal/day
Glycerol [7, 9]: 66 ± 25 µM
BW ([7]; High-fat high fructose dogs, WO (4 weeks washout)): 31.7 ± 2.9 kg
BHB [7, 10]: 76 ± 9 µM
FI [7, 10]: 1187 ± 258 kcal/day
Glycerol [7, 10]: 131 ± 54 µM
BW ([7]; High-fat high fructose dogs, ZGNTx (8 weeks treatment)): 30.8 ± 3.4 kg
reduction of FI ([7]; OWC dogs): 9%
weight gain ([7]; OWC dogs, daily oral, 8 weeks): inhibited weight gain
BHB ([7]; Overweight chow dogs, WO): 44 ± 5 µM
BW ([7]; Overweight chow dogs, WO): 18.6 ± 0.7 kg
FI ([7]; Overweight chow dogs, WO): 1116 ± 22 kcal/day
Glycerol ([7]; Overweight chow dogs, WO): 86 ± 33 µM
BHB ([7]; Overweight chow dogs, ZGNTx): 48 ± 11 µM
BW ([7]; Overweight chow dogs, ZGNTx): 17.8 ± 0.5 kg
FI ([7]; Overweight chow dogs, ZGNTx): 1255 ± 64 kcal/day
Glycerol ([7]; Overweight chow dogs, ZGNTx): 143 ± 26 µM
BHB levels ([7]; overweight dogs, treatment): increased in HFF only
glycerol levels ([7]; overweight dogs, treatment): increased
retroperitoneal fat pad weight ([8]; 1 mg/kg daily, 250 days): more similar to that of age-matched lean mice
size and appearance of epididymal fat, peri-renal fat and liver ([8]; 1 mg/kg daily, 250 days): more similar to that of age-matched lean mice
maintained weight less than that of age-matched lean mice on normal chow ([8]; 1 mg/kg daily, after maximum weight reduction): 25%
fasted glucose and insulin levels, insulin-glucose product ([8]; 1 mg/kg, high fat diet mice): more similar to that of age-matched lean mice
hydroxybutyrate concentration at longer time points [8, 11]: Increased hydroxybutyrate concentration persisted
reduction in body fat [8, 11]: approximately 40%
adipocyte size ([8]; high fat diet mice): more similar to that of age-matched lean mice
crown-like structures in adipose tissue ([8]; high fat diet mice): absent
sensitivity to insulin ([8]; mice on a high fat diet): normalizes sensitivity to insulin

— patent US10406134B2, “Methods of treating an overweight subject” (Zafgen, Inc., priority 2010, dated 2019)
